Assay results published in patent publication US20140341813A1, “INDOCYANINE GREEN-CONTAINING PARTICLE AND METHOD OF PRODUCING THE PARTICLE” (CANON KABUSHIKI KAISHA, priority 2013, published 2014).

Assays:
[1] = Spectral shift of ICG aqueous solutions before and after heating (J-aggregate formation and suppression); type: physicochemical
Experimental: FIG. 4 and FIG. 5 show the results of wavelength shifts based on additive concentration series. […] The axis of abscissa of each square indicates a wavelength, and values at its left and right ends are 500 nm and 950 nm, respectively, and the axis of ordinate thereof indicates an absorbance and its scale is arbitrary. The additive in this case refers to urea.
A third square from the left end corresponds to a solution to which the additive is added at a concentration one-half as high as that of the second square.
A second square from the left end corresponds to a 1.5 mM ICG aqueous solution, and an upper stage and a lower stage show spectra before and after the heating, respectively. A third square corresponds to an ICG aqueous solution having a concentration one-half as high as that of the second square.

Water solubility of urea = type: physicochemical; details: calculated from water solubility and molecular weight 60.06
rat [2] = details: oral; cited from earlier work
mouse = details: intravenous injection; cited from earlier work
rat [3] = details: intravenous injection; cited from earlier work
rat [4] = test: Urea 50% lethal dose LD50, oral

O=C(O)CC(O)(CC(=O)O)C(=O)O [citric acid]
J-aggregate formation of ICG in citric acid after heating ([1]; 1.5 mM ICG, citric acid 100 mM or less, free of urea, 60° C. for 30 minutes): a J-aggregate is formed
citric acid concentration above which agglomeration precipitation occurs ([1]; 1.5 mM ICG, free of urea, 60° C. for 30 minutes): higher than 12.5 mM

NC(N)=O [urea]
J-aggregation of ICG after heating with urea added ([1]; 1.5 mM ICG aqueous solution + 100 mM urea, heating at 60° C. for 30 minutes): the J-aggregation is suppressed
formation of the H-aggregate of ICG (absorption around 700 nm) with urea added ([1]; 1.5 mM ICG, urea added): suppresses the formation of the H-aggregate
amount of urea that dissolves (molar) (Water solubility of urea): up to 17.9 M
50% lethal dose LD50 (rat [2]): 8,500 mg/kg
LD50 (mouse): around 5,000 mg/kg
LD50 (rat [3]): around 5,000 mg/kg
ratio of urea amount in 10 ml of injection at 10 M to LD50 in terms of a body weight of 50 kg (rat [4]; 6.006 g/425 g): 1.41×10^−2
50% lethal dose converted in terms of a body weight of 50 kg (rat [4]; 8.5 g/kg × 50 kg): 425 g
